Data published in patent US20140309210A1, “INDAZOLE COMPOUNDS, COMPOSITIONS AND METHODS OF USE THEREOF” (Genentech, Inc., priority 2011, published 2014).
pKi: −log10 of the molar value.

Biological target: T1, purified ITK (Invitrogen PV3875) (Homo sapiens, UniProt Q08881)
T1 construct: purchased Invitrogen PV3875
T1 sequence (Q08881 1-620): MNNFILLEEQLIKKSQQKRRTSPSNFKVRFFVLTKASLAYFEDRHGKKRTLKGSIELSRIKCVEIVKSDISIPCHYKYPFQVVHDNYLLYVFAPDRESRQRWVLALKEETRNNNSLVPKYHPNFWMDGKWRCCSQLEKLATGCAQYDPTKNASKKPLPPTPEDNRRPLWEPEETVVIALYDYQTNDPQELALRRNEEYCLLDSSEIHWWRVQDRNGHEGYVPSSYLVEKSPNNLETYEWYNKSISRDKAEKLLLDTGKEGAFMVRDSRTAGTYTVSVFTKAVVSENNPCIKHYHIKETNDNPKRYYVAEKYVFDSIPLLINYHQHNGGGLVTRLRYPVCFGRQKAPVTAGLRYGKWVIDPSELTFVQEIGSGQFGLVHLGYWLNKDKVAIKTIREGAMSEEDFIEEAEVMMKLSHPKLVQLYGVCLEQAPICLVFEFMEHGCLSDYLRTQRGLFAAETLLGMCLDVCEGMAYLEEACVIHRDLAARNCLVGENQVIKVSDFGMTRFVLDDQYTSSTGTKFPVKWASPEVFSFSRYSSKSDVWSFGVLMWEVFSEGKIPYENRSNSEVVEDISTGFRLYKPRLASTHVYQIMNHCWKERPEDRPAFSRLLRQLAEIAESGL
Assay: ITK peptide phosphorylation assay (Caliper LabChip or LCMS)
Assay type: biochemical
Summary of the method: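 Ki values come from Morrison quadratic fits of activity versus inhibitor concentration, adjusted for ATP-competitive inhibition against ATP/Km,app. Substrate and phosphopeptide from purified ITK reactions were resolved either microfluidically (Caliper, EDTA stop) or by LC-MS MRM (TCA stop).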

[1] = Table 2, Examples 1-140, class symbols
[2] = Table 3, specific values for certain examples

Row | Compound | pKi (Table 1, Examples 141-279) | pKi [1] | pKi [2]
1 | Cc1cc2c(C(=O)Nc3cnn(Cc4cccc(C#N)c4)c3)n[nH]c2cc1-c1ccc(N)nc1 [Example 150, 6-(6-amino-3-pyridyl)-N-[1-[(3-cyanophenyl)meth-yl]pyrazol-4-yl]-5-methyl-1H-indazole-3-carboxamide] | 7.70 | – | –
2 | CN(CCC#N)Cc1cccc(Cn2cc(NC(=O)c3n[nH]c4ccccc34)cn2)c1 [Example 100, N-(1-(3-(((2-cyanoethyl)(methyl)amino)methyl)benzyl)-1H-pyrazol-4-yl)-1H-indazole-3-carboxamide] | – | 7.00 to 9.00 | –
3 | 6-(6-methoxy-3- pyridyl)-N-[1-(3- pyridylmethyl)py- razol-4-yl]-1H- indazole-3- carboxamide [Example 244] | 7.49 | – | –
4 | O=C(Nc1cnn(Cc2ccccc2C(F)(F)F)c1)c1n[nH]c2ccccc12 [Example 60, N-(1-(2-(trifluoromethyl)benzyl)-1H-pyrazol-4-yl)-1H-indazole-3-carboxamide] | – | < 7.00 | –
5 | O=C(O)c1cccc(Cn2cc(NC(=O)c3n[nH]c4cc(-c5cn[nH]c5)ccc34)cn2)c1 [Example 46, 3-(4-{[6-(1H-Pyrazol-4-yl)-1H-indazole-3-carbonyl]-amino}-pyrazol-1-ylmethyl)-benzoic acid] | – | 9.00 to 11.00 | –
6 | Nc1ccc(-c2ccc3c(C(=O)Nc4cnn(Cc5cscn5)c4)n[nH]c3c2)cn1 [Example 45, 6-(6-Amino-pyridin-3-yl)-1H-indazole-3-carboxylic acid (1-thiazol-4-ylmethyl-1H-pyrazol-4-yl)-amide] | – | 7.00 to 9.00 | –
7 | O=C(Nc1cnn(Cc2cscn2)c1)c1n[nH]c2cc(-c3cc[nH]n3)ccc12 [Example 43, 6-(1H-Pyrazol-3-yl)-1H-indazole-3-carboxylic acid (1-thiazol-4-ylmethyl-1H-pyrazol-4-yl)-amide] | – | 7.00 to 9.00 | –
8 | N#Cc1cccc(Cn2cc(NC(=O)c3n[nH]c4cc(F)ccc34)cn2)c1 [Example 3, N-(1-(3-cyanobenzyl)-1H-pyrazol-4-yl)-6-fluoro-1H-indazole-3-carboxamide] | – | 7.00 to 9.00 | 7.73
9 | Cc1cc2c(C(=O)Nc3cnn(Cc4cccc(C#N)c4)c3)n[nH]c2cc1-c1cccnc1 [Example 149, N-[1-[(3-cyanophenyl)meth-yl]pyrazol-4-yl]-5-methyl-6-(3-pyridyl)-1H-indazole-3-carboxamide] | 7.15 | – | –
10 | NC(=O)c1ccc(Cn2cc(NC(=O)c3n[nH]c4cc(-c5cn[nH]c5)ccc34)cn2)cc1 [Example 12, 6-(1H-Pyrazol-4-yl)-1H-indazole-3-carboxylic acid [1-(4-carbamoyl-benzyl)-1H-pyrazol-4-yl]-amide] | – | 9.00 to 11.00 | –
11 | O=C(Nc1cnn(Cc2ccc(CNCC(F)F)cc2)c1)c1n[nH]c2ccccc12 [Example 105, N-(1-(4-((2,2-difluoroethylamino)methyl)benzyl)-1H-pyrazol-4-yl)-1H-indazole-3-carboxamide] | – | 7.00 to 9.00 | –
12 | N#Cc1cccc(Cn2cc(NC(=O)c3n[nH]c4cc(-n5ccnc5)ccc34)cn2)c1 [Example 142, N-[1-[(3-cyanophenyl)meth-yl]pyrazol-4-yl]-6-imidazol-1-yl-1H-indazole-3-carboxamide] | 7.49 | – | –
13 | CC(C)(O)c1cccc(Cn2cc(NC(=O)c3n[nH]c4cc(-c5cn[nH]c5)ccc34)cn2)c1 [Example 47, 6-(1H-Pyrazol-4-yl)-1H-indazole-3-carboxylic acid {1-[3-(1-hydroxy-1-methyl-ethyl)-benzyl]-1H-pyrazol-4-yl}-amide] | – | 7.00 to 9.00 | –
14 | CN(C)CCNCc1ccc(Cn2cc(NC(=O)c3n[nH]c4ccccc34)cn2)cc1 [Example 104, N-(1-(4-((2-(dimethylamino)ethylamino)methyl)benzyl)-1H-pyrazol-4-yl)-1H-indazole-3-carboxamide] | – | 7.00 to 9.00 | –
15 | O=C(Nc1cnn(Cc2nc3ccccc3s2)c1)c1n[nH]c2cc(-c3cn[nH]c3)ccc12 [Example 17, 6-(1H-Pyrazol-4-yl)-1H-indazole-3-carboxylic acid (1-benzothiazol-2-ylmethyl-1H-pyrazol-4-yl)-amide] | – | 7.00 to 9.00 | 8.74
16 | O=C(Nc1cnn(Cc2cc(Cl)cc(Cl)c2)c1)c1n[nH]c2ccccc12 [Example 57, N-(1-(3,5-dichlorobenzyl)-1H-pyrazol-4-yl)-1H-indazole-3-carboxamide] | – | 7.00 to 9.00 | –
17 | N#Cc1cccc(Cn2cc(NC(=O)c3n[nH]c4ccc(-c5ccccc5)cc34)cn2)c1 [Example 79, N-(1-(3-Cyanobenzyl)-1H-pyrazol-4-yl)-5-phenyl-1H-indazole-3-carboxamide] | – | < 7.00 | –
18 | O=C(Nc1cnn(Cc2ccc(CNCC3CC3)cc2)c1)c1n[nH]c2ccccc12 [Example 108, N-(1-(4-((cyclopropylmethylamino)methyl)benzyl)-1H-pyrazol-4-yl)-1H-indazole-3-carboxamide] | – | 7.00 to 9.00 | –
19 | N#Cc1cccc(Cn2cc(NC(=O)c3n[nH]c4cc(N5CCC(O)C5)ccc34)cn2)c1 (stereo not shown) [Example 88, N-(1-(3-cyanobenzyl)-1H-pyrazol-4-yl)-6-(3-hydroxypyrrolidin-1-yl)-1H-indazole-3-carboxamide] | – | 7.00 to 9.00 | –

The next lines start with the values.

Row | pKi (Table 1, Examples 141-279) | pKi [1] | pKi [2] | Compound
20 | 6.97 | – | – | N#Cc1cccc(Cn2cc(NC(=O)c3n[nH]c4ccc(NC5CCOCC5)cc34)cn2)c1 [Example 194, N-[1-[(3-cyanophenyl)meth-yl]pyrazol-4-yl]-5-(tetrahydropyran-4-ylamino)-1H-indazole-3-carboxamide]
21 | 8.24 | – | – | N#Cc1cccc(Cn2cc(NC(=O)c3n[nH]c4cc(-c5cncs5)ccc34)cn2)c1 [Example 202, N-[1-[(3-cyanophenyl)meth-yl]pyrazol-4-yl]-6-thiazol-5-yl-1H-indazole-3-carboxamide]
22 | 8.43 | – | – | O=C(Nc1cnn(CC2COCCO2)c1)c1n[nH]c2cc(-c3cn[nH]c3)ccc12 (stereo not shown) [Example 237]
23 | 8.03 | – | – | O=C(Nc1cnn(Cc2ccccc2)c1)c1n[nH]c2cc(-c3cncc(Cl)c3)ccc12 [Example 207, N-(1-benzylpyrazol-4-yl)-6-(5-chloro-3-pyridyl)-1H-indazole-3-carboxamide]
24 | 6.88 | – | – | O=C(Nc1cnn(Cc2ccccc2)c1)c1n[nH]c2cc(-c3ccnnc3)ccc12 [Example 205, N-(1-benzylpyrazol-4-yl)-6-pyridazin-4 yl-1H-indazole-3 carboxamide]
25 | 8.11 | – | – | COc1cncc(-c2ccc3c(C(=O)Nc4cnn(Cc5cccc(C#N)c5)c4)n[nH]c3c2)c1 [Example 166, N-[1-[(3-cyanophenyl)meth-yl]pyrazol-4-yl]-6-(5-methoxy-3-pyridyl)-1H-indazole-3-carboxamide]
26 | 7.00 | – | – | N#Cc1cccc(Cn2cc(NC(=O)c3n[nH]c4cc(-c5cc[nH]n5)c(F)cc34)cn2)c1 [Example 155, N-[1-[(3-cyanophenyl)meth-yl]pyrazol-4-yl]-5-fluoro-6-(1H-pyrazol-3-yl)-1H-indazole-3-carboxamide]
27 | 7.42 | – | – | COC(=O)C(c1ccccc1)n1cc(NC(=O)c2n[nH]c3ccccc23)cn1 (stereo not shown) [Example 255, methyl 2-[4-(1H-indazole-3-carbonylamino)py-razol-1-yl]-2-phenyl-acetate]
28 | 8.11 | – | – | O=C(Nc1cnn(Cc2c[nH]cn2)c1)c1n[nH]c2cc(-c3cn[nH]c3)ccc12 [Example 167, N-[1-(1H-imidazol-4-ylmethyl)pyrazol-4-yl]-6-(1H-pyrazol-4-yl)-1H-indazole-3-carboxamide]
29 | 7.26 | – | – | CNCCC(c1ccccc1)n1cc(NC(=O)c2n[nH]c3ccccc23)cn1 (stereo not shown) [Example 264, N-[1-[3-(methylamino)-1-phenyl-propyl]pyrazol-4-yl]-1H-indazole-3-carboxamide]
30 | 7.89 | – | – | N#Cc1cccc(Cn2cc(NC(=O)c3n[nH]c4cc(-c5ccc(N)nc5)c(F)cc34)cn2)c1 [Example 152, 6-(6-amino-3-pyridyl)-N-[1-[(3-cyanophenyl)meth-yl]pyrazol-4-yl]-5-fluoro-1H-indazole-3-carboxamide]
31 | 7.64 | – | – | COc1cncc(-c2ccc3c(C(=O)Nc4cnn(Cc5ccncc5)c4)n[nH]c3c2)c1 [Example 219, 6-(5-methoxy-3-pyridyl)-N-[1-(4-pyridylmethyl)py-razol-4-yl]-1H-indazole-3-carboxamide]
32 | 8.45 | – | – | CC(C)CN1CCOC(Cn2cc(NC(=O)c3n[nH]c4cc(-c5cn[nH]c5)ccc34)cn2)C1 (stereo not shown) [Example 252, N-[1-[(4-isobutylmorpholin-2-yl)methyl]pyrazol-4-yl]-6-(1H-pyrazol-4-yl)-1H-indazole-3-carboxamide]
33 | 8.63 | – | – | O=C(Nc1cnn(Cc2cnc(N3CCOCC3)nc2)c1)c1n[nH]c2cc(-c3cn[nH]c3)ccc12 [Example 227, N-[1-[(2-morpholinopy-rimidin-5-yl)methyl]pyrazol-4-yl]6-(1H-pyrazol-4-yl)-1H-indazole-3-carboxamide]
34 | 7.07 | – | – | CN(CCC(c1ccccc1)n1cc(NC(=O)c2n[nH]c3ccccc23)cn1)CC(F)F (stereo not shown) [Example 274, N-[1-[3-[2,2-difluoroethyl(meth-yl)amino]-1-phenyl-propyl]pyrazol-4-yl]-1H-indazole-3-carboxamide]
35 | 7.37 | – | – | N#Cc1cccc(Cn2cc(NC(=O)c3n[nH]c4ccc(NC5CCCCC5)cc34)cn2)c1 [Example 195, N-[1-[(3-cyanophenyl)meth-yl]pyrazol-4-yl]-5-(cyclohexylamino)-1H-indazole-3-carboxamide]
